Test results published in the NIST ThermoML archive (doi:10.1021/acs.jced.6b00269).
± gives the expanded uncertainty stated by the source.

Conditions: for viscosity / mass density: 101.33 kPa, Liquid; for viscosity: Cone and plate viscometry; for mass density: Vibrating tube method; for Glass transition temperature: DSC; for Normal melting temperature: Crystal, DTA

Row | SMILES | viscosity (278.15 K) [mPa·s] | viscosity (283.15 K) [mPa·s] | mass density (283.15 K) [kg/m3] | viscosity (288.15 K) [mPa·s] | mass density (288.15 K) [kg/m3] | viscosity (293.15 K) [mPa·s] | mass density (293.15 K) [kg/m3] | mass density (295.15 K) [kg/m3] | viscosity (298.15 K) [mPa·s] | mass density (298.15 K) [kg/m3] | viscosity (303.15 K) [mPa·s] | mass density (303.15 K) [kg/m3] | viscosity (308.15 K) [mPa·s] | mass density (308.15 K) [kg/m3] | viscosity (313.15 K) [mPa·s] | mass density (313.15 K) [kg/m3] | mass density (318.15 K) [kg/m3] | mass density (323.15 K) [kg/m3] | mass density (328.15 K) [kg/m3] | mass density (333.15 K) [kg/m3] | also measured
1 | CCC[n+]1ccn(C)c1C.O=[N+]([O-])c1cn[n-]c1 [1,2-dimethyl-3-propylimidazolium 4-nitropyrazolide] | 9610 ± 1100 | 4500 ± 500 | 1193 ± 7.7 | 2270 ± 230 | 1189.4 ± 7.7 | 1240 ± 110 | 1185.6 ± 7.6 | 1184.3 ± 7.6 | 722 ± 61 | 1182.2 ± 7.6 | 447 ± 35 | 1178.9 ± 7.6 | 294 ± 22 | 1175.5 ± 7.5 | 200 ± 10 | 1172.2 ± 7.5 | 1168.9 ± 7.4 | 1165.7 ± 7.4 | 1162.5 ± 7.3 | 1159.3 ± 7.3 | viscosity (318.15 K): 143 ± 10 mPa·s; viscosity (323.15 K): 106 ± 7 mPa·s; viscosity (328.15 K): 81 ± 5 mPa·s; viscosity (333.15 K): 65 ± 4 mPa·s; viscosity (338.15 K): 53 ± 4 mPa·s; mass density (338.15 K): 1156.1 ± 7.3 kg/m3; mass density (343.15 K): 1152.8 ± 7.2 kg/m3; mass density (348.15 K): 1149.6 ± 7.2 kg/m3; mass density (353.15 K): 1146.4 ± 7.1 kg/m3; Glass transition temperature: -50 ± 2 °C
2 | CCC=Cn1cc[n+](C)c1C.O=[N+]([O-])c1cn[n-]c1 [1-but-1-enyl-2,3-dimethylimidazolium 4-nitropyrazolide] | 6650 ± 750 | 3260 ± 340 | 1191.5 ± 7.7 | 1720 ± 170 | 1187.7 ± 7.7 | 973 ± 86 | 1184.2 ± 7.6 | 1182.8 ± 7.6 | 590 ± 48 | 1180.8 ± 7.6 | 380 ± 29 | 1177.5 ± 7.5 | 255 ± 19 | 1174.1 ± 7.5 | 179 ± 13 | 1170.8 ± 7.5 | 1167.6 ± 7.4 | 1164.4 ± 7.4 | 1161.1 ± 7.3 | 1157.9 ± 7.3 | viscosity (318.15 K): 131 ± 9 mPa·s; viscosity (323.15 K): 99 ± 7 mPa·s; viscosity (328.15 K): 77 ± 5 mPa·s; viscosity (333.15 K): 62 ± 4 mPa·s; viscosity (338.15 K): 50 ± 3 mPa·s; mass density (338.15 K): 1154.7 ± 7.2 kg/m3; mass density (343.15 K): 1151.5 ± 7.2 kg/m3; mass density (348.15 K): 1148.3 ± 7.2 kg/m3; mass density (353.15 K): 1145.2 ± 7.1 kg/m3; Glass transition temperature: -53 ± 2 °C
3 | CCCC[n+]1cccn1C.O=S(=O)([N-]S(=O)(=O)C(F)(F)F)C(F)(F)F [1-butyl-2-methylpyrazolium bis(trifluoromethylsulfonyl)imide] | 214 ± 15 | 155 ± 11 | 1465.4 ± 12 | 116 ± 8 | 1460.7 ± 12 | 88 ± 6 | 1456 ± 12 | 1454.06 ± 12 | 70 ± 5 | 1451.2 ± 12 | 55 ± 4 | 1446.5 ± 11 |  | 1441.8 ± 11 |  | 1437.1 ± 11 | 1432.4 ± 11 | 1427.7 ± 11 | 1423 ± 11 | 1418.4 ± 11 | mass density (338.15 K): 1413.8 ± 11 kg/m3; mass density (343.15 K): 1409.1 ± 11 kg/m3; mass density (348.15 K): 1404.6 ± 11 kg/m3; mass density (353.15 K): 1400 ± 11 kg/m3; Glass transition temperature: -82 ± 2 °C
4 | CCCC[S+]1CCCCC1.O=S(=O)([N-]S(=O)(=O)C(F)(F)F)C(F)(F)F [1-butylthianium bis(trifluoromethylsulfonyl)imide] | 398 ± 30 | 279 ± 21 |  | 200 ± 10 |  | 148 ± 10 |  |  | 112 ± 8 |  | 88 ± 6 |  | 70 ± 5 |  | 57 ± 4 |  |  |  |  |  | Normal melting temperature: -10 ± 2 °C; Glass transition temperature: -82 ± 2 °C
5 | Cc1n(C2CCCC2)cc[n+]1C.O=[N+]([O-])c1cn[n-]c1 [1-cyclopentyl-2,3-dimethylimidazolium 4-nitropyrazolide] |  |  |  |  |  |  |  |  |  |  |  |  |  |  |  |  |  |  |  |  | Normal melting temperature: 92 ± 2 °C
6 | CCCCCCn1cc[n+](C)c1C.O=[N+]([O-])c1cn[n-]c1 [1-hexyl-2,3-dimethylimidazolium 4-nitropyrazolide] | 14600 ± 1800 | 6910 ± 800 | 1129.4 ± 6.9 | 3490 ± 370 | 1126 ± 6.9 | 1910 ± 180 | 1122.4 ± 6.8 | 1121 ± 6.8 | 1110 ± 100 | 1118.9 ± 6.8 | 691 ± 58 | 1115.7 ± 6.8 | 450 ± 35 | 1112.4 ± 6.7 | 303 ± 23 | 1109.2 ± 6.7 | 1106 ± 6.6 | 1102.8 ± 6.6 | 1099.7 ± 6.6 | 1096.6 ± 6.5 | viscosity (318.15 K): 213 ± 15 mPa·s; viscosity (323.15 K): 147 ± 10 mPa·s; viscosity (328.15 K): 112 ± 8 mPa·s; viscosity (333.15 K): 87 ± 6 mPa·s; viscosity (338.15 K): 69 ± 5 mPa·s; mass density (338.15 K): 1093.5 ± 6.5 kg/m3; viscosity (343.15 K): 56 ± 4 mPa·s; mass density (343.15 K): 1090.4 ± 6.4 kg/m3; mass density (348.15 K): 1087.4 ± 6.4 kg/m3; mass density (353.15 K): 1084.3 ± 6.4 kg/m3; Glass transition temperature: -47 ± 2 °C
7 | CCCCCCn1cc[n+](C)c1.N#Cc1ccc[n-]1 [1-hexyl-3-methylimidazolium 2-cyanopyrrolide] | 1540 ± 140 | 902 ± 78 | 1031 ± 5.7 | 553 ± 45 | 1027.9 ± 5.7 | 355 ± 27 | 1024.9 ± 5.7 | 1023.6 ± 5.7 | 239 ± 17 | 1021.8 ± 5.6 | 167 ± 12 | 1018.8 ± 5.6 | 122 ± 8 | 1015.8 ± 5.6 | 91 ± 6 | 1012.8 ± 5.5 | 1009.9 ± 5.5 | 1006.9 ± 5.5 | 1003.9 ± 5.4 | 1001 ± 5.4 | viscosity (318.15 K): 70 ± 5 mPa·s; viscosity (323.15 K): 55 ± 4 mPa·s; mass density (338.15 K): 998 ± 5.4 kg/m3; mass density (343.15 K): 995.1 ± 5.3 kg/m3; mass density (348.15 K): 992.1 ± 5.3 kg/m3; mass density (353.15 K): 989.1 ± 5.3 kg/m3; Glass transition temperature: -65 ± 2 °C
8 | CCCCCCn1cc[n+](C)c1.O=[N+]([O-])c1cn[n-]c1 [1-hexyl-3-methylimidazolium 4-nitropyrazolide] | 3310 ± 340 | 1810 ± 170 | 1133.6 ± 7 | 1040 ± 92 | 1130 ± 6.9 | 633 ± 52 | 1126.6 ± 6.9 | 1125.3 ± 6.9 | 407 ± 32 | 1123.3 ± 6.8 | 275 ± 20 | 1120 ± 6.8 | 192 ± 14 | 1116.6 ± 6.8 | 139 ± 10 | 1113.4 ± 6.7 | 1110.2 ± 6.7 | 1107 ± 6.6 | 1103.8 ± 6.6 | 1100.6 ± 6.6 | viscosity (318.15 K): 102 ± 7 mPa·s; viscosity (323.15 K): 79 ± 5 mPa·s; viscosity (328.15 K): 63 ± 4 mPa·s; viscosity (333.15 K): 51 ± 3 mPa·s; mass density (338.15 K): 1097.4 ± 6.5 kg/m3; mass density (343.15 K): 1094.2 ± 6.5 kg/m3; mass density (348.15 K): 1091.1 ± 6.5 kg/m3; mass density (353.15 K): 1087.9 ± 6.4 kg/m3; Normal melting temperature: 33 ± 2 °C; Glass transition temperature: -56 ± 2 °C
9 | CC(=O)[O-].CCCCCCn1cc[n+](C)c1 [3-hexyl-1-methylimidazolium acetate] | 12300 ± 1500 | 6460 ± 740 | 1025.7 ± 5.7 | 3550 ± 370 | 1022.7 ± 5.7 | 2060 ± 200 | 1019.6 ± 5.6 | 1018.4 ± 5.6 | 1270 ± 120 | 1016.6 ± 5.6 | 816 ± 69 | 1013.5 ± 5.5 | 537 ± 43 | 1010.4 ± 5.5 | 372 ± 28 | 1007.4 ± 5.5 | 1004.5 ± 5.4 | 1001.5 ± 5.4 | 998.5 ± 5.4 | 995.5 ± 5.3 | viscosity (318.15 K): 265 ± 19 mPa·s; viscosity (323.15 K): 194 ± 14 mPa·s; viscosity (328.15 K): 147 ± 10 mPa·s; viscosity (333.15 K): 113 ± 8 mPa·s; viscosity (338.15 K): 90 ± 6 mPa·s; mass density (338.15 K): 992.6 ± 5.3 kg/m3; mass density (343.15 K): 989.6 ± 5.3 kg/m3; mass density (348.15 K): 986.7 ± 5.3 kg/m3; mass density (353.15 K): 983.7 ± 5.2 kg/m3
